Patent publication US10392404B2, “Compounds and compositions as kinase inhibitors” (NOVARTIS AG, priority 2014, dated 2019)

Tests used:
C-RAF = biological target: T1, C-RAF (Homo sapiens, UniProt P04049, Y340E/Y341E); assay: In vitro Raf activity determination (Alpha Screen, biotinylated kinase-dead MEK1 substrate), C-Raf; type: biochemical; conditions: c-Raf approximately 4 nM; ATP 1 μM; pre-incubation 60 minutes; reaction 1 hour at room temperature
T1 construct: His tag (implied by nickel chromatography) (cleaved yes); StrepII tag (cleaved yes); made in house; host or cells: Sf9 insect cells (baculovirus), CRAF and h14-3-3 zeta co-expressed; MEK1 substrate from E. coli
T1 sequence (P04049 whole entry Y340E/Y341E): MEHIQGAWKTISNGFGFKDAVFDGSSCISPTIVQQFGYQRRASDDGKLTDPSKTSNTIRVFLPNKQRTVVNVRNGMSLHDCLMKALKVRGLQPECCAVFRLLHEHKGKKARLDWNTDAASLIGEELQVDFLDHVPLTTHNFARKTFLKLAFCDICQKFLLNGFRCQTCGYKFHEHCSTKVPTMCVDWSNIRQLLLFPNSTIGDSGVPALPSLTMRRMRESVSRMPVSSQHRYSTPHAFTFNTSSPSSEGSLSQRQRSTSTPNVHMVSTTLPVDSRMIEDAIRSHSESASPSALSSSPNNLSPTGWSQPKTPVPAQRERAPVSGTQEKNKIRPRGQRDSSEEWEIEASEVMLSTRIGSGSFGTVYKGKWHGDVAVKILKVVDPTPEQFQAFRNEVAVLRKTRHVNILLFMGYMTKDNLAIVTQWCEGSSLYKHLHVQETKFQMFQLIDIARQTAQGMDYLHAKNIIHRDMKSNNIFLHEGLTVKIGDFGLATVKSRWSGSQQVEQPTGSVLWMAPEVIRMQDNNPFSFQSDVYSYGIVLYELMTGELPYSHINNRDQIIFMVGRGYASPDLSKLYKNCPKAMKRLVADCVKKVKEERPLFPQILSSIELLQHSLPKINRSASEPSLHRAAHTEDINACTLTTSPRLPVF
T1 sequence (P63104 whole entry partner): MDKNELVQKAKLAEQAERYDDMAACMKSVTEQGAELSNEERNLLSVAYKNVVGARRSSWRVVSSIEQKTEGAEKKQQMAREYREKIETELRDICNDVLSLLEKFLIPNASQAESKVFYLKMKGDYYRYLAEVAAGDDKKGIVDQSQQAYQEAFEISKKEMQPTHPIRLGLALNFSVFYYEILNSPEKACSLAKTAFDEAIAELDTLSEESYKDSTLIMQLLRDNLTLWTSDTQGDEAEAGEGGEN
How it was run: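 Full-length C-Raf carrying Y340E/Y341E, co-expressed with 14-3-3ζ in Sf9 cells, at approximately 4 nM, with approximately 10 nM biotinylated kinase-dead MEK1 (K97R) and 1 μM ATP, pH 7.5. Compound preincubated 60 min, reaction 1 hour at room temperature. Phospho-MEK read by AlphaScreen; IC50 by non-linear regression.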

b-Raf (V600E) = biological target: T2, b-Raf (V600E) (Homo sapiens, UniProt P15056, V600E); assay: In vitro Raf activity determination (Alpha Screen, biotinylated kinase-dead MEK1 substrate), B-Raf; type: biochemical; conditions: b-Raf (V600E) approximately 4 pM; ATP 10 μM; pre-incubation 60 minutes; reaction 3 hours at room temperature
T2 construct: made in house
T2 sequence (P15056 whole entry V600E): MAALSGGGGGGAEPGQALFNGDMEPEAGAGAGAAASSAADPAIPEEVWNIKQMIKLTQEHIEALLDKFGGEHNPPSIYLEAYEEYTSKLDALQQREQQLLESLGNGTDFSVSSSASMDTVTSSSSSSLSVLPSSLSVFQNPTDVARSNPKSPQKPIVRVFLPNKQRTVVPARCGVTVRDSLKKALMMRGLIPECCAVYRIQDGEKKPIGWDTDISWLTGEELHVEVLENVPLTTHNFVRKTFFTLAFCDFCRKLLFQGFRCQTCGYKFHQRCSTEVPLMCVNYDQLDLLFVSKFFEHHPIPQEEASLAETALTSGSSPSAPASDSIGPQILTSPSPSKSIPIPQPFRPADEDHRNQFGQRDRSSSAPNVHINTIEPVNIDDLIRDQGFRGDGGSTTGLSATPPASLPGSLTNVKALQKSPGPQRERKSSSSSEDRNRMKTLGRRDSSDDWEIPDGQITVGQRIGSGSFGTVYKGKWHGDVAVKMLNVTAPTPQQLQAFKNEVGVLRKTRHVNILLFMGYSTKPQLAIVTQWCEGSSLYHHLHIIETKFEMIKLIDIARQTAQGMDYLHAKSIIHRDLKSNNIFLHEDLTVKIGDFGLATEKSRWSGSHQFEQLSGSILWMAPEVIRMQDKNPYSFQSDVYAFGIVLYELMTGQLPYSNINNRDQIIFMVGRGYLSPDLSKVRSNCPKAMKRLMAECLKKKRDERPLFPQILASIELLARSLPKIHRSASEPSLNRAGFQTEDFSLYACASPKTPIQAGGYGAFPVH
How it was run: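 Activated b-Raf(V600E) (~4 pM) pre-incubated 60 min with compound and biotinylated kinase-dead (K97R) MEK1 (~10 nM), then reacted 3 h at room temperature with 10 μM ATP in 50 mM Tris pH 7.5, 15 mM MgCl2, 0.01% BSA, 1 mM DTT. Phospho-MEK detected by AlphaScreen; IC50 by non-linear regression.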

SMILES | IC50 (C-RAF) [nM] | IC50 (b-Raf (V600E)) [nM]
Cc1ccc(NC(=O)c2ccnc(S(C)(=O)=O)c2)cc1-c1cnc(N(C)C)c(C#N)c1 [Example 261, N-(3-(5-cyano-6-(dimethylamino)pyridin-3-yl)-4-methylphenyl)-2-(methylsulfonyl) isonicotinamide] | 0.106 | 0.71
Cc1ncc(NC(=O)c2cc(C3CC3)on2)cc1-c1cnc(N(C)C)c(C#N)c1 [Example 262, N-(5′-cyano-6′-(dimethylamino)-2-methyl-[3,3′-bipyridin]-5-yl)-5-cyclopropylisoxazole-3-carboxamide] | 2.16 | 10.9
CCn1cc(C(=O)Nc2cnc(C)c(-c3cnc(N(C)C)c(C#N)c3)c2)c(C)n1 [Example 263, N-(5′-cyano-6′-(dimethylamino)-2-methyl-[3,3′-bipyridin]-5-yl)-1-ethyl-3-methyl-1H-pyrazole-4-carboxamide] | 55.3 | 884
Cc1nn(C)cc1C(=O)Nc1cnc(C)c(-c2cnc(N(C)C)c(C#N)c2)c1 [Example 264, N-(5′-cyano-6′-(dimethylamino)-2-methyl-[3,3′-bipyridin]-5-yl)-1,3-dimethyl-1H-pyrazole-4-carboxamide] | 148 | 1970
Cc1ncc(NC(=O)c2cc(C3CC3)nn2C)cc1-c1cnc(N(C)C)c(C#N)c1 [Example 266, N-(5′-cyano-6′-(dimethylamino)-2-methyl-[3,3′-bipyridin]-5-yl)-3-cyclopropyl-1-methyl-1H-pyrazole-5-carboxamide] | 30.8 | 404
Cc1ncc(NC(=O)c2cc(C(F)(F)F)nn2C)cc1-c1cnc(N(C)C)c(C#N)c1 [Example 267, N-(5′-cyano-6′-(dimethylamino)-2-methyl-[3,3′-bipyridin]-5-yl)-1-methyl-3-(trifluoromethyl)-1H-pyrazole-5-carboxamide] | 196 | 1660
Cc1cc(CC(=O)Nc2cnc(C)c(-c3cnc(N(C)C)c(C#N)c3)c2)on1 [Example 268, N-(5′-cyano-6′-(dimethylamino)-2-methyl-[3,3′-bipyridin]-5-yl)-2-(3-methylisoxazol-5-yl)acetamide] | 8 | 94.2
Cc1ncc(NC(=O)c2cc(C(C)C)on2)cc1-c1cnc(N(C)C)c(C#N)c1 [Example 269, N-(5′-cyano-6′-(dimethylamino)-2 methyl-[3,3′-bipyridin]-5-yl)-5-isopropylisoxazole-3-carboxamide] | 0.636 | 6.15
Cc1ncc(NC(=O)c2cccc(S(C)(=O)=O)c2)cc1-c1cnc(N(C)C)c(C#N)c1 [Example 270, N-(5′-cyano-6′-(dimethylamino)-2-methyl-[3,3′-bipyridin]-5-yl)-3-(methylsulfonyl) benzamade] | 0.49 | 5.41
Cc1ncc(NC(=O)c2ccnc(S(C)(=O)=O)c2)cc1-c1cnc(N(C)C)c(C#N)c1 [Example 271, N-(5′-cyano-6′-(dimethylamino)-2-methyl-[3,3′-bipyridin]-5-yl)-2-(methylsulfonyl) isonicotinamide] | 1.15 | 11.2
Cc1ncc(NC(=O)c2ccnc(C(C)(C)O)c2)cc1-c1cnc(N(C)C)c(C#N)c1 [Example 272, N-(5′-cyano-6′-(dimethylamino)-2-methyl-[3,3′-bipyridin]-5-yl)-2-(2-hydroxypropan-2-yl)isonicotinamide] | 2.16 | 18.4
Cc1ccc(NC(=O)c2cc(C(C)(C)N)cc(C(F)(F)F)c2)cc1-c1cnc(-c2cnn(C)c2)c(C#N)c1 [Example 273, 3-(2-aminopropan-2-yl)-N-(3-(5-cyano-6-(1-methyl-1H-pyrazol-4-yl)pyridin-3-yl)-4-methylphenyl)-5-(trifluoromethyl) benzamide] | 1 | 4
